Measured values: patent publication US9738634B2, “Heterocyclic amide compound and herbicide” (SYNGENTA PARTICIPATIONS AG, priority 2013, dated 2017)

Assays:
Assay type in all cases: in vivo
Conditions in all cases: treatment dosage 320 g/ha
fig-leafed goosefoot [1] = test: Test Example 4: weedkilling efficacy by foliar treatment; M: fig-leafed goosefoot
Procedure, shortened: (§1)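 Seeds are spot-sown into sterilized diluvial soil and covered with about 1.5 cm of soil. After 14 days' greenhouse growth at 25 to 30° C, plants are sprayed on stems and leaves with diluted emulsion at the stated g/ha rate, then scored at 3 weeks.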

directly sown rice [2] = test: Test Example 4: foliar treatment, effect on crop; b: directly sown rice
Procedure, shortened: as §1

chickweed [3] = test: Test Example 4: weedkilling efficacy by foliar treatment; N: chickweed
Procedure, shortened: as §1

rapeseed [4] = test: Test Example 4: foliar treatment, effect on crop; g: rapeseed
Procedure, shortened: as §1

catchweed [5] = test: Test Example 4: weedkilling efficacy by foliar treatment; O: catchweed
Procedure, shortened: as §1

green foxtail [6] = test: Test Example 4: weedkilling efficacy by foliar treatment; E: green foxtail
Procedure, shortened: as §1

beet [7] = test: Test Example 3: soil treatment, effect on crop; f: beet
Procedure, shortened: (§2)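 Crop and weed responses were judged three weeks after a uniform surface spray of the water-diluted emulsion at the given g/ha rate. Seeds sat beneath about 1.5 cm of sterilized diluvial soil, and boxes stood in a greenhouse at 25 to 30° C.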

crabgrass [8] = test: Test Example 3: weedkilling efficacy through soil treatment; D: crabgrass
Procedure, shortened: as §2

directly sown rice [9] = test: Test Example 3: soil treatment, effect on crop; b: directly sown rice
Procedure, shortened: as §2

Italian ryegrass [10] = test: Test Example 4: weedkilling efficacy by foliar treatment; I: Italian ryegrass
Procedure, shortened: as §1

transplanted rice = test: Test Example 1: preemergent weed treatment in the submerged state, effect on crop; a: transplanted rice
Procedure, shortened: (§3)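 Pre-emergence paddy test: weed seeds sown in submerged alluvial soil (4 cm water), 2.5-leaf rice transplanted, water-diluted emulsion applied to water surface at sowing at stated g/ha. Scored at 3 weeks, greenhouse 25–30 °C.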

rapeseed [11] = test: Test Example 3: soil treatment, effect on crop; g: rapeseed
Procedure, shortened: as §2

Indian mallow [12] = test: Test Example 3: weedkilling efficacy through soil treatment; K: Indian mallow
Procedure, shortened: as §2

redroot pigweed [13] = test: Test Example 4: weedkilling efficacy by foliar treatment; L: redroot pigweed
Procedure, shortened: as §1

chickweed [14] = test: Test Example 3: weedkilling efficacy through soil treatment; N: chickweed
Procedure, shortened: as §2

oval-leafed pondweed [15] = test: Test Example 2: weedkilling efficacy, growth period weed treatment in the submerged state; C: oval-leafed pondweed
Procedure, shortened: (§4)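 Seedlings at 1-2 leaves in 4 cm-deep submerged alluvial soil received emulsion formulations on the water surface, dosed per hectare; effects were judged 3 weeks on.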

wild oat [16] = test: Test Example 4: weedkilling efficacy by foliar treatment; G: wild oat
Procedure, shortened: as §1

barnyard grass [17] = test: Test Example 2: weedkilling efficacy, growth period weed treatment in the submerged state; A: barnyard grass
Procedure, shortened: as §4

bulrush [18] = test: Test Example 1: weedkilling efficacy, preemergent weed treatment in the submerged state; B: bulrush
Procedure, shortened: as §3

common wind-grass [19] = test: Test Example 3: weedkilling efficacy through soil treatment; J: common wind-grass
Procedure, shortened: as §2

wild oat [20] = test: Test Example 3: weedkilling efficacy through soil treatment; G: wild oat
Procedure, shortened: as §2

black-grass [21] = test: Test Example 4: weedkilling efficacy by foliar treatment; H: black-grass
Procedure, shortened: as §1

Italian ryegrass [22] = test: Test Example 3: weedkilling efficacy through soil treatment; I: Italian ryegrass
Procedure, shortened: as §2

soybean [23] = test: Test Example 4: foliar treatment, effect on crop; d: soybean
Procedure, shortened: as §1

black-grass [24] = test: Test Example 3: weedkilling efficacy through soil treatment; H: black-grass
Procedure, shortened: as §2

wheat [25] = test: Test Example 4: foliar treatment, effect on crop; e: wheat
Procedure, shortened: as §1

crabgrass [26] = test: Test Example 4: weedkilling efficacy by foliar treatment; D: crabgrass
Procedure, shortened: as §1

beet [27] = test: Test Example 4: foliar treatment, effect on crop; f: beet
Procedure, shortened: as §1

soybean [28] = test: Test Example 3: soil treatment, effect on crop; d: soybean
Procedure, shortened: as §2

catchweed [29] = test: Test Example 3: weedkilling efficacy through soil treatment; O: catchweed
Procedure, shortened: as §2

common wind-grass [30] = test: Test Example 4: weedkilling efficacy by foliar treatment; J: common wind-grass
Procedure, shortened: as §1

barnyard grass [31] = test: Test Example 3: weedkilling efficacy through soil treatment; F: barnyard grass
Procedure, shortened: as §2

redroot pigweed [32] = test: Test Example 3: weedkilling efficacy through soil treatment; L: redroot pigweed
Procedure, shortened: as §2

bulrush [33] = test: Test Example 2: weedkilling efficacy, growth period weed treatment in the submerged state; B: bulrush
Procedure, shortened: as §4

wheat [34] = test: Test Example 3: soil treatment, effect on crop; e: wheat
Procedure, shortened: as §2

green foxtail [35] = test: Test Example 3: weedkilling efficacy through soil treatment; E: green foxtail
Procedure, shortened: as §2

barnyard grass [36] = test: Test Example 1: weedkilling efficacy, preemergent weed treatment in the submerged state; A: barnyard grass
Procedure, shortened: as §3

barnyard grass [37] = test: Test Example 4: weedkilling efficacy by foliar treatment; F: barnyard grass
Procedure, shortened: as §1

corn [38] = test: Test Example 3: soil treatment, effect on crop; c: corn
Procedure, shortened: as §2

Indian mallow [39] = test: Test Example 4: weedkilling efficacy by foliar treatment; K: Indian mallow
Procedure, shortened: as §1

fig-leafed goosefoot [40] = test: Test Example 3: weedkilling efficacy through soil treatment; M: fig-leafed goosefoot
Procedure, shortened: as §2

corn [41] = test: Test Example 4: foliar treatment, effect on crop; c: corn
Procedure, shortened: as §1

oval-leafed pondweed [42] = test: Test Example 1: weedkilling efficacy, preemergent weed treatment in the submerged state; C: oval-leafed pondweed
Procedure, shortened: as §3

birds-eye speedwell = test: Test Example 4: weedkilling efficacy by foliar treatment; p: birds-eye speedwell
Procedure, shortened: as §1

CC1=C(c2ccccc2)C(=O)N(C(C)(C)C(=O)Nc2cc(-c3ccc(F)nc3)ccn2)CO1 [B-5-01]
M (fig-leafed goosefoot) weedkilling efficacy grade (fig-leafed goosefoot [1]): 3 (weed kill ratio 40% or more, less than 70%) | b (directly sown rice) effect on crop grade (directly sown rice [2]): 0 (weed kill ratio 5% or less (practically no effect)) | N (chickweed) weedkilling efficacy grade (chickweed [3]): 0 (weed kill ratio 5% or less (practically no effect)) | g (rapeseed) effect on crop grade (rapeseed [4]): 0 (weed kill ratio 5% or less (practically no effect)) | O (catchweed) weedkilling efficacy grade (catchweed [5]): 1 (weed kill ratio 5% or more, less than 20%) | E (green foxtail) weedkilling efficacy grade (green foxtail [6]): 0 (weed kill ratio 5% or less (practically no effect)) | f (beet) effect on crop grade (beet [7]): 0 (weed kill ratio 5% or less (practically no effect)) | D (crabgrass) weedkilling efficacy grade (crabgrass [8]): 0 (weed kill ratio 5% or less (practically no effect)) | b (directly sown rice) effect on crop grade (directly sown rice [9]): 0 (weed kill ratio 5% or less (practically no effect)) | I (Italian ryegrass) weedkilling efficacy grade (Italian ryegrass [10]): 0 (weed kill ratio 5% or less (practically no effect)) | a (transplanted rice) effect on crop grade (transplanted rice): 0 (weed kill ratio 5% or less (practically no effect)) | g (rapeseed) effect on crop grade (rapeseed [11]): 0 (weed kill ratio 5% or less (practically no effect)) | K (Indian mallow) weedkilling efficacy grade (Indian mallow [12]): 0 (weed kill ratio 5% or less (practically no effect)) | L (redroot pigweed) weedkilling efficacy grade (redroot pigweed [13]): 0 (weed kill ratio 5% or less (practically no effect)) | N (chickweed) weedkilling efficacy grade (chickweed [14]): 0 (weed kill ratio 5% or less (practically no effect)) | C (oval-leafed pondweed) weedkilling efficacy grade (oval-leafed pondweed [15]): 4 (weed kill ratio 70% or more, less than 90%) | G (wild oat) weedkilling efficacy grade (wild oat [16]): 0 (weed kill ratio 5% or less (practically no effect)) | A (barnyard grass) weedkilling efficacy grade (barnyard grass [17]): 3 (weed kill ratio 40% or more, less than 70%) | B (bulrush) weedkilling efficacy grade (bulrush [18]): 5 (weed kill ratio 90% or more, (practically complete withering)) | J (common wind-grass) weedkilling efficacy grade (common wind-grass [19]): 4 (weed kill ratio 70% or more, less than 90%) | G (wild oat) weedkilling efficacy grade (wild oat [20]): 0 (weed kill ratio 5% or less (practically no effect)) | H (black-grass) weedkilling efficacy grade (black-grass [21]): 0 (weed kill ratio 5% or less (practically no effect)) | I (Italian ryegrass) weedkilling efficacy grade (Italian ryegrass [22]): 0 (weed kill ratio 5% or less (practically no effect)) | d (soybean) effect on crop grade (soybean [23]): 0 (weed kill ratio 5% or less (practically no effect)) | H (black-grass) weedkilling efficacy grade (black-grass [24]): 0 (weed kill ratio 5% or less (practically no effect)) | e (wheat) effect on crop grade (wheat [25]): 0 (weed kill ratio 5% or less (practically no effect)) | D (crabgrass) weedkilling efficacy grade (crabgrass [26]): 0 (weed kill ratio 5% or less (practically no effect)) | f (beet) effect on crop grade (beet [27]): 0 (weed kill ratio 5% or less (practically no effect)) | d (soybean) effect on crop grade (soybean [28]): 0 (weed kill ratio 5% or less (practically no effect)) | O (catchweed) weedkilling efficacy grade (catchweed [29]): 0 (weed kill ratio 5% or less (practically no effect)) | J (common wind-grass) weedkilling efficacy grade (common wind-grass [30]): 0 (weed kill ratio 5% or less (practically no effect)) | F (barnyard grass) weedkilling efficacy grade (barnyard grass [31]): 0 (weed kill ratio 5% or less (practically no effect)) | L (redroot pigweed) weedkilling efficacy grade (redroot pigweed [32]): 0 (weed kill ratio 5% or less (practically no effect)) | B (bulrush) weedkilling efficacy grade (bulrush [33]): 3 (weed kill ratio 40% or more, less than 70%) | e (wheat) effect on crop grade (wheat [34]): 0 (weed kill ratio 5% or less (practically no effect)) | E (green foxtail) weedkilling efficacy grade (green foxtail [35]): 2 (weed kill ratio 20% or more, less than 40%) | A (barnyard grass) weedkilling efficacy grade (barnyard grass [36]): 4 (weed kill ratio 70% or more, less than 90%) | F (barnyard grass) weedkilling efficacy grade (barnyard grass [37]): 0 (weed kill ratio 5% or less (practically no effect)) | c (corn) effect on crop grade (corn [38]): 0 (weed kill ratio 5% or less (practically no effect)) | K (Indian mallow) weedkilling efficacy grade (Indian mallow [39]): 0 (weed kill ratio 5% or less (practically no effect)) | M (fig-leafed goosefoot) weedkilling efficacy grade (fig-leafed goosefoot [40]): 0 (weed kill ratio 5% or less (practically no effect)) | c (corn) effect on crop grade (corn [41]): 0 (weed kill ratio 5% or less (practically no effect)) | C (oval-leafed pondweed) weedkilling efficacy grade (oval-leafed pondweed [42]): 4 (weed kill ratio 70% or more, less than 90%) | P (birds-eye speedwell) weedkilling efficacy grade (birds-eye speedwell): 3 (weed kill ratio 40% or more, less than 70%)
